Laboratory results reported in patent US20250235499A1, “ANTI-OVARIAN CANCER PHARMACEUTICAL COMPOSITION AND ACTION TARGET THEREOF” (Zhejiang Chinese Medical University, priority 2024, published 2025).

Legend:
[1] = tested on: MCM2, CDK4, Cyclin D1, P21; experiment: Western Blot of tumor body cyclin in tumor bearing nude mice; assay type: in vivo, BALB/c nude mice; settings: nude mouse tumor body, compared to the Control group
Excerpt: The expression of nude mice tumor body cyclin and EMT related proteins in tumor bearing nude mice after intervention with DDP, CA, BDMC, and combined administration was shown in FIG. 29. In the figure, 1 represented the Control group; 2 represented the DDP group; 3 represented the CA group; 4 represented the BDMC group; and 5 represented the CA+BDMC group.

[2] = tested on: E-cadherin, N-cadherin, Vimentin in SKOV3 cells; experiment: Expression of EMT related proteins in cells; assay type: cell-based, human
[3] = tested on: SKOV3 ovarian cancer cells; experiment: CCK-8 detection of proliferation of an ovarian cancer cell; assay type: cell-based, human; settings: CA 50-800 μmol/L, BDMC 3.125-50 μmol/L, 24 and 48 hours, concentration- and time-dependent
Method: (§1) SKOV3 and Hey ovarian cancer cells in logarithmic growth phase were digested with 0.1% trypsin to prepare a cell suspension, and the cell concentration was quantified at 10^4 cells/mL. 200 μL of the cell suspension each well was inoculated into a 96 well plate, and 200 μL of PBS was added to each well of the outer circle to eliminate edge effects. The 96 well plate was placed in a 37° C. incubator containing 5% CO2 for 24 hours each. After the cells adhered to the wall, the culture medium was discarded, and the cells were washed three times with PBS buffer. New culture medium containing different concentrations of CA (0, 50, 100, 200, 400, and 800 μmol/L) and BDMC ([…]) were added, with 6 parallel wells in each group. After adding a pharmaceutical, cultivation was further conducted, the 96 well plate was taken out at 24 hours and 48 hours, the original culture medium was discarded, the cells were washed three times with PBS, 200 μL of prepared serum-free culture medium containing 10% CCK-8 was added, and incubated at 37° C. for 1 hour. A well with drug concentration of 0 μmol/L was used as a control well and a well without cells and only added with a CCK-8 solution as a blank well. An absorbance at a wavelength of 450 nm was measured using a microplate reader, and an IC50 value was calculated using GraphPad Prism 8 software. […]

Hey ovarian cancer cells = experiment: as above; assay type: cell-based, human; settings: CA 50-800 μmol/L, BDMC 3.125-50 μmol/L, 24 and 48 hours, concentration- and time-dependent
Method: as §1

[4] = tested on: MCM2, CDK4, Cyclin D1, P21; experiment: Immunohistochemical assay of tumor body cell cycle related proteins in tumor bearing nude mice; assay type: in vivo, BALB/c nude mice; settings: nude mouse tumor body, compared to the Control group
Method: The immunohistochemistry of tumor body cyclin in tumor bearing nude mice after intervention with DDP, CA, BDMC, and combined administration was shown in FIG. 28. The image was magnified by 400×, with a scale of 10 μM. The expression of MCM2, CDK4, and Cyclin D1 proteins in the CA group, BDMC group, and CA+BDMC group decreased compared to the Control group; and the expression of MCM2, CDK4, and Cyclin D1 proteins in the CA+BDMC group decreased compared to the CA group and BDMC group. The expression of P21 protein in the CA group, BDMC group, and CA+BDMC group increased compared to the Control group; and the expression of P21 protein in the CA+BDMC group increased compared to the CA group and BDMC group.

[5] = tested on: CDK4, Cyclin D1, P21 in SKOV3 cells; experiment: Expression of cell cycle related proteins in cells; assay type: cell-based, human
[6] = SKOV3 OE-MCM2 cells (MCM2 overexpression), vs OE-MCM2 group
[7] = SKOV3 OE-NC cells (empty vector), vs OE-NC group
[8] = SKOV3 sh-MCM2 cells (MCM2 knockdown), vs sh-MCM2 group
[9] = SKOV3 sh-NC cells (empty vector), vs sh-NC group

COc1ccc(-c2coc3cc(O)ccc3c2=O)cc1O [CA, calycosin]
expression of CDK4 protein (Western Blot) [1]: significantly decreased
expression of Cyclin D1 protein (Western Blot) [1]: significantly decreased
expression of MCM2 protein (Western Blot) [1]: significantly decreased
expression of P21 protein (Western Blot) [1]: significantly increased
expression of E-cadherin [2, 6]: no significant change
expression of N-cadherin [2, 6]: no significant change
expression of Vimentin [2, 6]: no significant change
expression of E-cadherin [2, 7]: significantly increased
expression of N-cadherin [2, 7]: significantly decreased
expression of Vimentin [2, 7]: significantly decreased
expression of E-cadherin [2, 8]: no significant change
expression of N-cadherin [2, 8]: no significant change
expression of Vimentin [2, 8]: no significant change
expression of E-cadherin [2, 9]: significantly increased
expression of N-cadherin [2, 9]: significantly decreased
expression of Vimentin [2, 9]: significantly decreased
effect on proliferation [3]: proliferative inhibitory effects
effect on proliferation (Hey ovarian cancer cells): proliferative inhibitory effects
expression of CDK4 protein (immunohistochemistry) [4]: decreased
expression of Cyclin D1 protein (immunohistochemistry) [4]: decreased
expression of MCM2 protein (immunohistochemistry) [4]: decreased
expression of P21 protein (immunohistochemistry) [4]: increased
expression of CDK4 [5, 6]: no significant change
expression of Cyclin D1 [5, 6]: no significant change
expression of P21 [5, 6]: no significant change
expression of CDK4 [5, 7]: significantly decreased
expression of Cyclin D1 [5, 7]: significantly decreased
expression of P21 [5, 7]: significantly increased
expression of CDK4 [5, 8]: no significant change
expression of Cyclin D1 [5, 8]: no significant change
expression of P21 [5, 8]: no significant change
expression of CDK4 [5, 9]: significantly decreased
expression of Cyclin D1 [5, 9]: significantly decreased
expression of P21 [5, 9]: significantly increased
